For assay [1], the system named is PC-3. Nature of the assay: Cytotoxicity against human PC3 cells assessed as growth inhibition after 48 hrs by sulphorhodamine B assay. It counts as functional, cell-based. The conditions noted are these: PC-3, 48 h. In general terms: In SRB staining, fixed cells bind dye roughly in proportion to their protein.
For assay [2], the system named is MCF7. The assay is described as follows: Cytotoxicity against human MCF7 cells assessed as growth inhibition after 48 hrs by sulphorhodamine B assay. It counts as functional, cell-based. The conditions noted are these: MCF7, 48 h.
The subject of assay [3] is A549. Nature of the assay: Cytotoxicity against human A549 cells assessed as growth inhibition after 48 hrs by sulphorhodamine B assay. It counts as functional, cell-based. The following applies: A549, 48 h.
For assay [4], the system named is HCT-116. The assay is described as follows: Cytotoxicity against human HCT116 cells assessed as growth inhibition after 48 hrs by sulphorhodamine B assay. It counts as functional, cell-based. The following applies: HCT-116, 48 h.
Assay [5] has as its system MCF7. The assay is described as follows: Cell cycle arrest in human MCF7 cells assessed as accumulation at subG1 phase at 5 uM after 24 hrs by propidium iodide staining-based flow cytometric analysis (reference value: 4.8%). The format is functional. A general note: A flow cytometer gives signals particle by particle.
The subject of assay [6] is MCF7. The assay is described as follows: Cell cycle arrest in human MCF7 cells assessed as accumulation at subG1 phase at 1 uM after 24 hrs by propidium iodide staining-based flow cytometric analysis (reference value: 4.8%). It counts as functional.
The subject of assay [7] is MCF7. Nature of the assay: Cell cycle arrest in human MCF7 cells assessed as accumulation at subG1 phase at 1.5 uM after 24 hrs by propidium iodide staining-based flow cytometric analysis (reference value: 4.8%). It counts as functional.
The target of assay [8] is Transcription factor p65 (Homo sapiens) (UniProt Q04206). The assay is described as follows: Inhibition of NF-kappa-B p65 subunit binding to DNA response element in human MCF7 cell nuclear lysates after 24 hrs.
Sequence of Transcription factor p65 (Homo sapiens) (Q04206 whole entry): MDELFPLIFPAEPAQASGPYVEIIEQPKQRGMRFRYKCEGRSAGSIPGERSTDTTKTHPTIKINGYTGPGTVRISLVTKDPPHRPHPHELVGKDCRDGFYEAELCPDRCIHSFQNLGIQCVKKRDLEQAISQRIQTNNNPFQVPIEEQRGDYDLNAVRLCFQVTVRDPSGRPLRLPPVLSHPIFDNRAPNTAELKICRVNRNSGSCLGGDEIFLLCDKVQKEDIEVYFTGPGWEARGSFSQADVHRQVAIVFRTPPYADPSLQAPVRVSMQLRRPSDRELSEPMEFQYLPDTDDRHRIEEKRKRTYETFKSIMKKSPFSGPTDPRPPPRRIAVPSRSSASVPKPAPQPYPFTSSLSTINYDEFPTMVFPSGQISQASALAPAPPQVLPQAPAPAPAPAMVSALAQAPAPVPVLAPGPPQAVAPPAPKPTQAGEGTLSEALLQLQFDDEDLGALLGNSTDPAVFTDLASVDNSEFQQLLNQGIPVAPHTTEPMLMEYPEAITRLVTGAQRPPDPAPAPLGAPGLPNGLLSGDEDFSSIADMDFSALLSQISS
Assay [9] has the same target. Nature of the assay: Inhibition of NF-kappa-B p65 subunit binding to DNA response element in human MCF7 cell nuclear lysates at 1.5 uM after 24 hrs relative to control.
For assay [10] the target is unchanged. The assay is described as follows: Inhibition of NF-kappa-B p65 subunit binding to DNA response element in human MCF7 cell nuclear lysates at 1 uM after 24 hrs relative to control.
The subject of assay [11] is MCF7. The assay is described as follows: Cell cycle arrest in human MCF7 cells assessed as accumulation at subG1 phase after 24 hrs by propidium iodide staining-based flow cytometric analysis. The format is functional.
The target in assay [12] is Transcription factor p65 (Homo sapiens) (UniProt Q04206). The assay is described as follows: Inhibition of NF-kappa-B p65 subunit binding to DNA response element in human MCF7 cell nuclear lysates at 2 uM after 24 hrs relative to control.
Assay [13] relates to MCF7. The assay is described as follows: Cell cycle arrest in human MCF7 cells assessed as accumulation at subG1 phase at 2 uM after 24 hrs by propidium iodide staining-based flow cytometric analysis (reference value: 4.8%). The format is functional.
For assay [14], the target named is Transcription factor p65 (Homo sapiens) (UniProt Q04206). Nature of the assay: Inhibition of NF-kappa-B p65 subunit binding to DNA response element in human MCF7 cell nuclear lysates at 3 uM after 24 hrs relative to control.

Where only a bound is given, the exact number is not on record here.

`CC1=C2[C@H]3OC(=O)[C@@H](CSc4ccccc4Br)[C@@H]3CC[C@@]2(C)C=CC1=O`: the concentration for half-maximal inhibition (IC50) came out at 2.6 µM in assay [1], 2.3 µM in [2], 2.8 µM in assay [3] and 1.1 µM in [4].

In the case of `CC1=C2[C@H]3OC(=O)[C@@H](CSc4nc5ccccc5c(=O)[nH]4)[C@@H]3CC[C@@]2(C)C=CC1=O`, the IC50 in assay [1] was determined as 31.1 µM; in assay [2], 17.2 µM; in [3], 18.3 µM; in assay [4], 20.3 µM.

For `CC1=C2[C@H]3OC(=O)[C@@H](CSC4CCCCC4)[C@@H]3CC[C@@]2(C)C=CC1=O`, the IC50 in assay [1] was greater than 50 µM; in [2], greater than 50 µM; in [3] it was 45.2 µM; in assay [4] it was greater than 50 µM.

With `CC1=C2[C@H]3OC(=O)[C@@H](CSc4ccc(C)cc4)[C@@H]3CC[C@@]2(C)C=CC1=O`, the IC50 in [1] was 5.7 µM; in [2], 6 µM; in assay [3], 7.4 µM; in [4], 12.1 µM.

In the case of `CC1=C2[C@H]3OC(=O)[C@@H](CSc4ccccc4Cl)[C@@H]3CC[C@@]2(C)C=CC1=O`, the IC50 in assay [1] was determined as 9.1 µM; in assay [2], 23.2 µM; in assay [3], 6.6 µM; in [4], 16.6 µM.

For the compound `CC1=C2[C@H]3OC(=O)[C@@H](CSc4ccc(Br)cc4C)[C@@H]3CC[C@@]2(C)C=CC1=O`, the IC50 is 8.5 µM in assay [1], 8.5 µM in assay [2], 10 µM in assay [3] and 1.4 µM in assay [4].

For `CC1=C2[C@H]3OC(=O)[C@@H](CSc4ccccc4C)[C@@H]3CC[C@@]2(C)C=CC1=O`, the IC50 in [1] is 20.7 µM; in assay [2] it was 20.9 µM; in [3] it was 0.9 µM; in [4] it was 21.5 µM.

On to `CC1=C2[C@H]3OC(=O)[C@@H](CSc4nc5ccccc5n4C)[C@@H]3CC[C@@]2(C)C=CC1=O`, for which the IC50 in [1] is 34.9 µM; in [2], 39.2 µM; in [3], 42 µM; in assay [4], 20.7 µM.

As for `CC1=C2[C@H]3OC(=O)[C@@H](CSc4ccc(F)c(F)c4)[C@@H]3CC[C@@]2(C)C=CC1=O`, the IC50 in assay [1] came to 2.9 µM; in assay [2] it was 1 µM; in [3], 5.9 µM; in [4], 0.7 µM.

As for `CC1=C2[C@H]3OC(=O)[C@@H](CSc4ccccc4F)[C@@H]3CC[C@@]2(C)C=CC1=O`, the IC50 in assay [1] was 2 µM; in assay [2] it was 1.2 µM; in [3] it was 1.8 µM; in [4] it was 0.9 µM.

On to `O=c1[nH]cc(F)c(=O)[nH]1` [FLUOROURACIL], for which, in [4], the IC50 was determined as 4.5 µM.

On to `COc1ccccc1SC[C@@H]1C(=O)O[C@@H]2C3=C(C)C(=O)C=C[C@]3(C)CC[C@@H]12`, for which the IC50 in assay [1] is 40.7 µM; in assay [2] it was 36.1 µM; in assay [3], greater than 50 µM; in assay [4], 45.9 µM.

`CC1=C2[C@H]3OC(=O)[C@@H](CSc4ccccc4N)[C@@H]3CC[C@@]2(C)C=CC1=O`: the IC50 is 10.8 µM in assay [1], 7.8 µM in [2], 30.7 µM in assay [3] and 13 µM in assay [4].

Regarding `C=C1C(=O)O[C@@H]2C3=C(C)C(=O)C=C[C@]3(C)CC[C@@H]12`, the IC50 is 32.7 µM in assay [1], 25.2 µM in assay [2], greater than 50 µM in assay [3] and 31.5 µM in assay [4].

Turning to `CC1=C2[C@H]3OC(=O)[C@@H](CSc4ccc(C)c(Br)c4)[C@@H]3CC[C@@]2(C)C=CC1=O`, the IC50 in [1] worked out at 31 µM; in assay [2], 20.2 µM; in [3], 4.1 µM; in assay [4], 0.8 µM.

As to `CC[C@@]1(O)C(=O)OCc2c1cc1n(c2=O)Cc2cc3ccccc3nc2-1` [CAMPTOTHECIN], the Activity in [5] is listed as 52.4%.

For the compound `CC1=C2[C@H]3OC(=O)[C@@H](CSc4ccccc4)[C@@H]3CC[C@@]2(C)C=CC1=O`, the IC50 in assay [1] amounted to 25.9 µM; in assay [2] it was 25.2 µM; in assay [3], 19.8 µM; in [4] it was 19.1 µM.

On to `CC1=C2[C@H]3OC(=O)[C@@H](CSc4ncc[nH]4)[C@@H]3CC[C@@]2(C)C=CC1=O`, for which the IC50 in [1] was 4.7 µM; in assay [2], 2.4 µM; in assay [3], 8.8 µM; in assay [4] it was 0.8 µM.

As to `CC1=C2[C@H]3OC(=O)[C@@H](CSc4ccc(F)cc4)[C@@H]3CC[C@@]2(C)C=CC1=O`, the IC50 in assay [1] is 4.5 µM; in assay [2], 7.3 µM; in assay [3] it was 1.1 µM; in assay [4] it was 0.8 µM.

As to `COc1ccc(SC[C@@H]2C(=O)O[C@@H]3C4=C(C)C(=O)C=C[C@]4(C)CC[C@@H]23)cc1`, the IC50 in assay [1] was found to be 13.1 µM; in [2] it was 21.4 µM; in assay [3], 8.9 µM; in [4] it was 24.9 µM.

Consider `CCSC[C@@H]1C(=O)O[C@@H]2C3=C(C)C(=O)C=C[C@]3(C)CC[C@@H]12`, for which the half-inhibitory concentration (IC50) in [1] was found to be 9.9 µM; in [2], 23.5 µM; in assay [3] it was 12.2 µM; in assay [4] it was 16.5 µM.

Consider `CC1=C2[C@H]3OC(=O)[C@@H](CSc4ccccn4)[C@@H]3CC[C@@]2(C)C=CC1=O`, for which the IC50 in [1] worked out at 1.9 µM; in assay [2], 0.4 µM; in assay [3] it was 4.1 µM; in assay [4], 0.5 µM. In addition, the Activity in assay [6] came to 38%; in [7], 44.6%. Further, the inhibition entry in assay [8] was “Dose-dependent effect”; in assay [9], 43%; in [10], 27%.

In the case of `CC1=C2[C@H]3OC(=O)[C@@H](C)[C@@H]3CC[C@@]2(C)C=CC1=O` [SANTONIN], the IC50 in assay [1], in [2], in assay [3] and in assay [4] was greater than 50 µM each time.

Turning to `CC1=C2[C@H]3OC(=O)[C@@H](CSc4ccc(Br)cc4)[C@@H]3CC[C@@]2(C)C=CC1=O`, the IC50 in assay [1] is 1.5 µM; in assay [2], 0.6 µM; in [3] it was 2.4 µM; in assay [4], 1.2 µM. In addition, the Activity result is “Dose-dependent effect” in [11], 36.8% in [6] and 44.5% in assay [7]. In addition, the inhibition entry is “Dose-dependent effect” in assay [8], 45% in assay [9] and 57% in assay [12].

As for `CC1=C2[C@H]3OC(=O)[C@@H](CSc4ccc(Cl)cc4)[C@@H]3CC[C@@]2(C)C=CC1=O`, the IC50 in assay [1] was 2.1 µM; in assay [2] it was 1 µM; in assay [3], 2.7 µM; in assay [4], 0.8 µM. For the same compound, the Activity entry in assay [11] was “Dose-dependent effect”; in assay [7] it was 45.1%; in assay [13] it was 46.6%. Also, the inhibition entry in [8] is “Dose-dependent effect”; in assay [9], 36%; in [12], 49%; in assay [14] it was 62%.

In general, IC50 refers to the concentration needed to halve the response being measured. As a reminder, the inhibition is the drop in the measured response relative to a control, in per cent.
